Values quoted from earlier work in patent publication US10561704B2, “Compositions and methods for treating neuropsychiatric disorders using an endothelin-B receptor agonist” (MIDWESTERN UNIVERSITY, priority 2013, dated 2020).
Where a SMILES comes first, the peptide text is derived from it.

System: Aβ treated rats
Conditions: Briyal et al., 2011; cited from earlier work

In the case of `Cc1noc(NS(=O)(=O)c2cccc3c(N(C)C)cccc23)c1C` [BMS182874], the “Aβ induced oxidative stress and cognitive deficits” value is listed as “prevent”.

For `CC(C)C[C@@H]1NC(=O)[C@@H](C(C)C)NC(=O)[C@@H]2CCCN2C(=O)[C@@H](CC(=O)O)NC(=O)[C@@H](Cc2c[nH]c3ccccc23)NC1=O` [BQ123] (HELM PEPTIDE1{L.[dW].[dD].P.[dV]}$PEPTIDE1,PEPTIDE1,1:R1-5:R2$$$V2.0), the “Aβ induced oxidative stress and cognitive deficits” value is given as “prevent”.
